# Results as given in ChEMBL document CHEMBL1201862, “PubChem BioAssay data set” (2004).
#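 Interpolation was linear, between the two tested concentrations surrounding the appropriate level; five concentrations were tested over 48 hours in 96-well plates. Here, GI50 denotes the concentration required for 50% inhibition of growth.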 Active and inactive are the calls of the source. Rule as the data show it: active = GI50 up to about 1.1 µM and inactive = higher.
# Key:
# Experiment in all cases: NCI-60 cell line screen, 48 h
# CCRF-CEM = system: CCRF-CEM
# NCI-H522 = system: NCI-H522
# OVCAR-4 = system: OVCAR-4
# RXF 393 = system: RXF 393
# OVCAR-8 = system: OVCAR-8
# SK-MEL-28 = system: SK-MEL-28
# SK-MEL-2 = system: SK-MEL-2
# IGROV-1 = system: IGROV-1
# CAKI-1 = system: CAKI-1
# TK-10 = system: TK-10
# UO-31 = system: UO-31
# MDA-MB-231 = system: MDA-MB-231
# SW-620 = system: SW-620
# A498 = system: A498
# DU-145 = system: DU-145
# A549 = system: A549
# SNB-19 = system: SNB-19
# SK-OV-3 = system: SK-OV-3
# Malme-3M = system: Malme-3M
# PC-3 = system: PC-3
Structure (SMILES),GI50 (CCRF-CEM),GI50 (NCI-H522),GI50 (OVCAR-4),GI50 (RXF 393),GI50 (OVCAR-8),GI50 (SK-MEL-28),GI50 (SK-MEL-2),GI50 (IGROV-1),GI50 (CAKI-1),GI50 (TK-10),GI50 (UO-31),GI50 (MDA-MB-231),GI50 (SW-620),GI50 (A498),GI50 (DU-145),GI50 (A549),GI50 (SNB-19),GI50 (SK-OV-3),GI50 (Malme-3M),GI50 (PC-3)
COc1ccc(-c2cc(O)c3c(C)cc(C)nc3n2)cc1,16.9 µM (inactive),38.1 µM (inactive),26.4 µM (inactive),49.7 µM (inactive),33.5 µM (inactive),47.9 µM (inactive),43.1 µM (inactive),23.3 µM (inactive),22.9 µM (inactive),25.1 µM (inactive),38 µM (inactive),17.7 µM (inactive),38.9 µM (inactive),30.5 µM (inactive),48.4 µM (inactive),55.3 µM (inactive),49.4 µM (inactive),> 100 µM (inactive),29 µM (inactive),
O=C(CSc1nnc(-c2ccc(/N=C\c3ccc(Cl)cc3)cc2)o1)Nc1ccccc1,32.9 µM (inactive),16.9 µM (inactive),> 100 µM (inactive),33 µM (inactive),> 100 µM (inactive),43.6 µM (inactive),> 100 µM (inactive),,,> 100 µM (inactive),98.4 µM (inactive),,44.9 µM (inactive),,,> 100 µM (inactive),53 µM (inactive),> 100 µM (inactive),> 100 µM (inactive),
COc1cc(-c2ccc(/N=N/c3c(S(=O)(=O)O)cc4cc(S(=O)(=O)O)cc(N)c4c3O)c(OC)c2)ccc1/N=N/c1c(S(=O)(=O)O)cc2cc(S(=O)(=O)O)cc(N)c2c1O,> 88.3 µM (inactive),> 100 µM (inactive),> 57 µM (inactive),> 100 µM (inactive),> 100 µM (inactive),> 100 µM (inactive),> 100 µM (inactive),> 100 µM (inactive),,,> 80.4 µM (inactive),,73.5 µM (inactive),> 100 µM (inactive),,> 77.4 µM (inactive),> 100 µM (inactive),> 100 µM (inactive),> 100 µM (inactive),
COc1ccc(C(CC(=O)c2cccs2)C(=O)c2ccc3c(c2)OCO3)cc1 (configuration not stated),> 100 µM (inactive),,> 100 µM (inactive),,> 100 µM (inactive),> 100 µM (inactive),,> 100 µM (inactive),> 100 µM (inactive),> 100 µM (inactive),,> 100 µM (inactive),> 100 µM (inactive),72.1 µM (inactive),> 100 µM (inactive),> 100 µM (inactive),,> 100 µM (inactive),97.7 µM (inactive),> 100 µM (inactive)
COc1cc[n+](C)cc1,> 100 µM (inactive),> 100 µM (inactive),> 100 µM (inactive),> 100 µM (inactive),> 100 µM (inactive),> 100 µM (inactive),> 100 µM (inactive),> 100 µM (inactive),,,> 100 µM (inactive),,> 100 µM (inactive),,,> 100 µM (inactive),> 100 µM (inactive),> 100 µM (inactive),> 100 µM (inactive),
O=c1cc(O)ccn1C1C=C(CO)C(O)C1O (configuration not stated),> 625 µM (inactive),,> 625 µM (inactive),> 625 µM (inactive),> 625 µM (inactive),> 625 µM (inactive),> 625 µM (inactive),> 625 µM (inactive),> 625 µM (inactive),,> 625 µM (inactive),,> 625 µM (inactive),,,> 625 µM (inactive),> 625 µM (inactive),> 625 µM (inactive),> 625 µM (inactive),
CN1CC(c2ccccc2)N(CCCCN2CC(c3ccccc3)N(C)CC2c2ccccc2)CC1c1ccccc1 (configuration not stated),20.9 µM (inactive),,37.7 µM (inactive),21.9 µM (inactive),44.3 µM (inactive),> 100 µM (inactive),30.9 µM (inactive),45 µM (inactive),> 100 µM (inactive),54.1 µM (inactive),57.9 µM (inactive),58.7 µM (inactive),35.2 µM (inactive),36 µM (inactive),36.2 µM (inactive),33.4 µM (inactive),54.7 µM (inactive),> 100 µM (inactive),31.7 µM (inactive),18.2 µM (inactive)
CCOC(=O)CCC(NC(=O)c1ccc(Nc2nc3cc(C(F)(F)F)ccc3nc2C(=O)OCC)cc1)C(=O)OCC (configuration not stated),> 100 µM (inactive),11.2 µM (inactive),3.54 µM (inactive),,5.45 µM (inactive),12.1 µM (inactive),14.1 µM (inactive),17.1 µM (inactive),,,11.6 µM (inactive),12.5 µM (inactive),18.6 µM (inactive),,78.9 µM (inactive),8.63 µM (inactive),10.7 µM (inactive),,,9.55 µM (inactive)
C[C@H]1COC2(c3ccccc3)CCC(=O)N12 (some centres not stated),> 100 µM (inactive),,> 100 µM (inactive),> 100 µM (inactive),> 100 µM (inactive),> 100 µM (inactive),> 100 µM (inactive),> 100 µM (inactive),> 100 µM (inactive),> 100 µM (inactive),,,> 100 µM (inactive),> 100 µM (inactive),,> 100 µM (inactive),> 100 µM (inactive),,> 100 µM (inactive),
C=C(Nc1ccc([N+](=O)[O-])cc1[N+](=O)[O-])c1c/c(=N\NC(N)=S)c2ccccc2o1,41.9 µM (inactive),> 100 µM (inactive),49 µM (inactive),60.3 µM (inactive),41.7 µM (inactive),> 100 µM (inactive),> 100 µM (inactive),36.1 µM (inactive),> 100 µM (inactive),> 100 µM (inactive),29.1 µM (inactive),26.8 µM (inactive),39.8 µM (inactive),,> 100 µM (inactive),> 100 µM (inactive),53 µM (inactive),35.7 µM (inactive),,26.1 µM (inactive)
COCO[C@@H]1C[C@H]2C(O)Nc3ccccc3C(=O)N2C1 (some centres not stated),> 100 µM (inactive),,> 100 µM (inactive),> 100 µM (inactive),> 100 µM (inactive),> 100 µM (inactive),> 100 µM (inactive),> 100 µM (inactive),> 100 µM (inactive),> 100 µM (inactive),> 100 µM (inactive),> 100 µM (inactive),> 100 µM (inactive),> 100 µM (inactive),> 100 µM (inactive),> 100 µM (inactive),> 100 µM (inactive),> 100 µM (inactive),,> 100 µM (inactive)
Nc1nccc2c1ncn2[C@H]1C[C@H](O)[C@@H](CO)O1,> 100 µM (inactive),,> 100 µM (inactive),> 100 µM (inactive),> 100 µM (inactive),> 100 µM (inactive),> 100 µM (inactive),> 100 µM (inactive),> 100 µM (inactive),> 100 µM (inactive),> 100 µM (inactive),> 100 µM (inactive),> 100 µM (inactive),> 100 µM (inactive),> 100 µM (inactive),,> 100 µM (inactive),> 100 µM (inactive),> 100 µM (inactive),> 100 µM (inactive)
CCCCCNC(=O)c1c(O)[nH]c(=S)[nH]c1=O,> 100 µM (inactive),> 100 µM (inactive),41.6 µM (inactive),,94.4 µM (inactive),> 100 µM (inactive),> 100 µM (inactive),> 100 µM (inactive),> 100 µM (inactive),> 100 µM (inactive),,,> 100 µM (inactive),96.8 µM (inactive),,66.5 µM (inactive),> 100 µM (inactive),> 100 µM (inactive),> 100 µM (inactive),
O=C1c2ccccc2C(=O)c2c(OCCOCCO)cccc21,,52.6 µM (inactive),72.9 µM (inactive),48.6 µM (inactive),70.1 µM (inactive),> 100 µM (inactive),> 100 µM (inactive),45.5 µM (inactive),21.9 µM (inactive),53.6 µM (inactive),38.9 µM (inactive),0.935 µM (active),57.5 µM (inactive),,> 100 µM (inactive),> 100 µM (inactive),> 100 µM (inactive),> 100 µM (inactive),74.3 µM (inactive),38.1 µM (inactive)
Cc1c(/C=N/NC(=O)c2ccccc2O)c(=O)n(-c2ccccc2)n1C,50.2 µM (inactive),> 100 µM (inactive),> 100 µM (inactive),49.2 µM (inactive),> 100 µM (inactive),> 100 µM (inactive),> 100 µM (inactive),> 100 µM (inactive),,> 100 µM (inactive),54.7 µM (inactive),,> 100 µM (inactive),,,> 100 µM (inactive),> 100 µM (inactive),> 100 µM (inactive),> 100 µM (inactive),
CC(=O)C(/N=N\C1CCC(S(=O)(=O)NB2N=CS2)CC1)C(=O)Nc1ccccc1C (configuration not stated),19 µM (inactive),15.3 µM (inactive),12.8 µM (inactive),21 µM (inactive),10.5 µM (inactive),15.4 µM (inactive),17.9 µM (inactive),17.4 µM (inactive),23.1 µM (inactive),25.6 µM (inactive),18.8 µM (inactive),,16.3 µM (inactive),16.7 µM (inactive),,13 µM (inactive),16.5 µM (inactive),27 µM (inactive),16 µM (inactive),
